# Measurements taken from patent US11517530B2, “Therapeutic agents specifically delivered by exosomes for cancer treatment” (The Board of Trustees of the Leland Stanford Junior …, priority 2017, dated 2022).
# Experiments:
# [1] = system: 4T1 murine mammary cells that endogenously generated HChrR6 enzyme; conditions: initial studies; cited from earlier work
# [2] = system: orthotopically implanted BT474 tumors; assay: In vivo assay for EXO-DEPT EV functionality, tumor growth; set-up: species or system nu/nu mice; conditions: 2×10^9 EVs i.p., CNOB 3.3 mg/kg i.v.
# Procedure: In vivo assays for EXO-DEPT EV functionality. All animal experiments were performed in accordance with protocols approved by Stanford University Institutional Animal Care and Use Committee. Number of mice required for this study was determined by power analysis using the G*Power 3.1.5 power calculator (Universitat Dusseldorf) for F-tests of one-way ANOVA by setting Type I error at 5% (alpha=0.05); power was kept at 0.8, and the number of treatment groups=5. The effect size f was calculated as 0.707. This number was then used to determine total sample size of 30 with 6 mice per treatment group (n=6). […] Tumor size was monitored by caliper at two-day intervals, and tumor volume was calculated using the formula: tumor width^2×its length/2. […]
# The effect of administration of EXO-DEPT EVs along with CNOB was tested on orthotopically implanted BT474 tumors in athymic mice; the treatment schedule (FIG. 4E) was guided by earlier PK/PD studies. […] After measurable implanted tumors in mice were detected, they were randomly allocated into 5 treatment groups (n=6): untreated; loaded EVs only; CNOB only; undirected loaded EVs+CNOB; and EXO-DEPT-EVs+CNOB. […]
# Each mouse was measured at nine time periods, days 0,3,7,11,16,19,24,28,32. A linear regression of tumor burden versus day was fit for each mouse, by ordinary least squares, and its slope calculated. s[i]=slope of mouse[i]'s linear regression
# [3] = earlier PK/PD studies; cited from earlier work
Compound,survival of mice [1],tumor growth ([2]; versus controls),mean slope of linear regression of tumor burden versus day ([2]; days 0-32),half-life in plasma [3] [h]
"O=c1c(Cl)c2oc3cc([N+](=O)[O-])ccc3nc-2c2ccccc12 [CNOB, 6-chloro-9-nitro-5-oxo-5H-benzo-(a)-phenoxazine]",marked improvement,no significant difference,7.24,
"Nc1ccc2nc3c4ccccc4c(=O)c(Cl)c-3oc2c1 [MCHB, 9-p amino-6-chloro-5H-benzo′a″phenoxazine-5-one]",,,,8.3
